Some results are limits rather than exact numbers.

The text below walks through data of patent US20250127908A1, “HETEROBIFUNCTIONAL CONDITIONAL INHIBITORS” (Kolm Therapeutics Inc., priority 2023, published 2025).

One assay has as its system VCaP cells. The assay can be described thus: VCaP growth inhibition assay (CTG). The format is cell-based. The settings on record: Homo sapiens, 216 h, 30 pM R1881, 9-day treatment, CTG luminescence. As to the method: Example B-2: VCaP Growth Inhibition Assay
VCaP cells (ATCC Cat #CRL-2876) are plated at 1×10^4 cells per well of a white plastic 96-well cluster plate (Thermo Scientific Nunc Cat #165306) in 100 uL phenol red-free DMLEM (Gibco Cat #21063-029) media with […] (Omega Scientific Cat #FB-04). Cluster plates are returned to the incubator (37*C/5% CO2) for 72 hours prior to treatment. Just prior to treatment, 100 uL of phenol red-free DMEM/5% CSS and 60 pM Ri881 (Sigma Cat #R0908-10 mg) was added to each well of the cluster plates (Final R1881 concentration=30 pM). Compounds (200×) were added to each well in a volume of 1 uL, with serial dilutions (1:5) from 20 uM to 2 pM (final concentrations in well are 100 nM to 10 fMV). Cluster plates are returned to the incubator for 9 days.
After the 9-day treatment period, media was removed from the cluster plates by inversion and 100 uL room temperature CTG reagent (Promega Cat #G7573) is added to each well. The cluster plates are placed on a shaker and incubated at room temperature for 20 minutes. Following this shaking/incubation, cluster plates are read on a luminometer (BMG ClarioStar). IC50 values are obtained by graphing the RLU data vs. compound concentration with nonlinear regression 4-parameter logistic curves (GraphPad Prism).

The test system of the next assay is HEK-293 cells. The assay can be described thus: HEK-293 growth inhibition assay (CTG). Type of assay: cell-based. The settings on record: Homo sapiens, HEK293, 72 h, 3-day treatment, CTG luminescence. As to the method: Example B-4: HEK-293 Growth Inhibition Assay
HEK-293 cells (ATCC Cat #CRL-1573) are plated at 3×10^3 cells per well of a white plastic 96-well cluster plate (Thermo Scientific Nunc Cat #165306) in 200 uL DMLEM (ATCC Cat #30-2002) media with 10% FBS (Gibco Cat #26140-079). Cluster plates are returned to the incubator (37*C/5% CO2) for 24 hours prior to treatment. Compounds (200×) were added to each well in a volume of 1 uL, with serial dilutions (1:5) from 2 mM to 200 pM (final concentrations in well are 10 uM to 1 pM). Cluster plates are returned to the incubator for 3 days.
After the 3-day treatment period, 100 uL media was removed from each well by aspiration and 100 uL room temperature CTG reagent (Promega Cat #G7573) is added back to each well. The cluster plates are placed on a shaker and incubated at room temperature for 20 minutes. Following this shaking/incubation, cluster plates are read on a luminometer (BMG ClarioStar). ICs50 values are obtained by graphing the RLU data vs. compound concentration with nonlinear regression 4-parameter logistic curves (GraphPad Prism).

As for `CNC(=O)N1CCc2c(c(N3CCCc4cc(-c5cnn(C)c5)c(C(F)F)cc43)nn2C2CCN(C(=O)COCCOCC3CCN(CC4CCN(c5ccc([C@H]6c7ccc(O)cc7CC[C@H]6c6ccccc6)cc5)CC4)CC3)CC2)C1` [Compound 10, 3-[7-(difluoromethyl)-6-(1-methylpyrazol-4-yl)-3,4-dihydro-2H-quinolin-1-yl]-1-[1-[2-[2-[[1-[[1-[4-(6-hydroxy-2-phenyl-tetralin-1-yl)phenyl]-4-piperidyl]methyl]-4-piperidyl]methoxy]ethoxy]acetyl]-4-piperidyl]-N-methyl-6,7-dihydro-4H-pyrazolo[4,3-c]pyridine-5-carboxamide], the values for the half-inhibitory concentration (IC50) in the assay with VCaP cells and in the assay with HEK-293 cells were 1 to 100 nM and > 1000 nM, respectively.
